Article PMC11766601, “A Comparative Study of the In Vitro Intestinal Permeability of Pinnatoxins and Portimine” (Marine Drugs, 2025)

Experiments:
Caco-2 cells = assay: Trans-epithelial electrical resistance (TEER) of differentiated Caco-2 monolayers; format: cell-based, human; conditions: 24 h, all of the concentrations (8, 16, 32 ng/mL)
Method: (§1) All experiments were performed with human intestinal Caco-2 cells (ATCC-HTB37), acquired from the American Type Culture Collection (ATCC; Manassas, VA, USA). Caco-2 cells originate from a colorectal adenocarcinoma, but upon reaching confluence, they differentiate and express the characteristics of enterocytes. The cells were cultivated in minimum essential medium containing 5.5 mM D-glucose, Earle’s salts, and 2 mM L-alanyl-glutamine (MEM GlutaMAX™, Gibco, Bromont, QC, Canada) supplemented with 10% fetal bovine serum (FBS, Gibco), 1% non-essential amino acids, 50 U/mL penicillin, and 50 μg/mL streptomycin (Gibco) under humidified conditions (37 °C, 5% CO2, 95% humidity). The cells were grown for 3–4 days up to 80% confluence before trypsinization and sub-culture. For the experiments, the cells were seeded in TRANSWELL® plates (12 wells, 0.4 µm pore size; Costar®, Corning Incorporated, Corning, NY, USA) at a density of 90,000 cells/cm^2. Prior to toxin treatment, highly differentiated Caco-2 cells were obtained after 24–26 days of culture, with medium renewal every 2–3 days. Passage numbers between 30 and 40 were used for experiments.
(§2) PnTX-A, PnTX-G, PnTX-E, PnTX-H, and portimine stock solutions were prepared in methanol, while PnTX-F was provided in acetonitrile/acetic acid (50%/0.1%). For each toxin, the cells were incubated at 8, 16, and 32 ng/mL (diluted in HBSS) for 2 h, 6 h, and 24 h, with a final volume of 1.5% solvent. The controls were incubated with the cell culture medium containing the respective solvent of the toxin at 1.5%. Each experiment included three biological replicates. Two to three independent experiments were conducted.
Epithelial integrity was examined by measuring the TEER between the apical and basolateral compartments. After rinsing with a HBSS solution (HBSS, HEPES 5 mM, pH 7.4), the Caco-2 monolayers were equilibrated for 30 min at 37 °C with 300 and 1000 µL HBSS in the apical (A) and basolateral (B) chambers, respectively. Then, the content of the apical compartment was replaced with 500 µL HBSS-containing toxins. TEER was quantified with a Millipore Millicell Electrical Resistance System (ERS Millipore, EMD Millipore Corporation, Burlington, MA, USA). The mean value of two measurements per well before and after the treatment was calculated and multiplied by the surface of the insert to obtain Ω × cm^2. After blank subtraction, the results were presented as a percentage of the solvent control.

Caco-2 cell monolayers [1] = assay: Lucifer Yellow paracellular permeability (barrier integrity); format: cell-based, human; conditions: 24 h, all concentrations (8, 16, 32 ng/mL)
Method: as §1, §2
For the assay, both compartments of the insert system were washed with Hank’s balanced salt solution (HBSS). Then, 0.5 mL of 0.1 mg/mL Lucifer Yellow in HBSS buffer and 1 mL of pure HBSS buffer were added to the apical and basolateral compartments, respectively. After a 2 h incubation at 37 °C, the media of the basolateral compartments were collected and the fluorescence of each compartment was measured in triplicate (excitation: 405 nm, emission: 520 nm) with a FLUOstar Optima microplate reader (BMG Labtech, Ortenberg, Germany). After subtraction of the blank (HBSS), the permeability of the […] was calculated against the value obtained for pure LY and reported as % permeability.

[2] = Toxin crossing and apparent permeability across Caco-2 cell monolayers (A to B), LC-MS/MS; format: in vitro ADME, human; conditions: human, Caco-2, A to B
Method: as §1, §2
(§3) The apical and basolateral compartments were collected after 2, 6, and 24 h treatment time. Parts of the solutions that were used to load the apical compartments were also stored (T0) to take into account the real concentration and not the estimated concentration. All the samples were stored at −20 °C until LC/MS analysis.
(§4) The LC-MS/MS analysis of toxins was implemented for the quantitative analysis of toxins. The LC system was an Agilent 1200 (Agilent Technologies, Santa Clara, CA, USA). The chromatographic separation was performed using a column Hypersil GOLD® C18 50 mm × 2.1 mm, 1.9 μm (Thermo Scientific, Waltham, MA, USA). Eluent A consisted of water, and eluent B of acetonitrile/water at a ratio of 95:5 (v/v), with both eluents containing 50 mM formic acid and 2 mM ammonium formate. The LC flow rate was 0.4 mL/min, and the gradient was programmed as follows: 10% B held for 0.5 min, 10–90% B in 5 min, 90% B held for 1 min, 90–10% B in 0.5 min, and 10% B held for 3.0 min, for a total run time of 10 min. The injection volume was 5 μL, while the column temperature was maintained at 40 °C. The column effluent was transferred via a divert valve (Valco Instruments Co., Inc., Houston, TX, USA), either to the mass spectrometer (between 1.7 and 5.5 min) or to waste.
(§5) The detection system was constructed with an API 4000 triple quadrupole mass spectrometer (Sciex, Framingham, MA, USA) equipped with an ElectroSpray Ionization (ESI) source (Turbo V). The mass spectrometer was operated in positive ESI mode. The source temperature was set at 600 °C, and the spray voltage was 5500 V. Air was used as a nebulizer gas and an auxiliary gas, with a gas pressure of 40 and 60 psi, respectively. Meanwhile, the curtain gas and collision gas were nitrogen, with a gas pressure of 15 and 8 psi, respectively. The mass spectrometer was operated in multiple reaction monitoring mode (MRM). One transition was used for quantification (Q) and another as a qualifier transition (q). A mass resolution of 0.7 Da full width at half maximum (FWHD) was set on the first (Q1) and the third (Q3) quadrupoles. Instrument control and data were handled with Analyst software version 1.5.1 (Sciex, Framingham, MA, USA).
(§6) The portimine and PnTX retention times varied between 2.7 and 4.4 min (Figure S1). […]

Caco-2 cell monolayers [3] = assay: as above; format: in vitro ADME, human; conditions: for % theoretical amount of toxin crossing the Caco-2 cell monolayers: relative to theoretical loaded concentration; for Percentage of toxin crossing the Caco-2 cell monolayers: A to B, relative to quantified T0
Method: as §1, §2, §3, §4, §5, §6

cancer cells = conditions: observed by several methods; cited from earlier work
mice = conditions: cited from earlier work

SMILES: C=CC1=CC2C3O[C@]4(CCC(O4)[C@@H](C)C[C@@H](O)C3=O)C[C@H](O)C3=NCC[C@@]32CC1 (stereo partly drawn) [Portimine, portimine]
- TEER (Caco-2 cells): 10.02 ± 0.96 % of control value
- effect on LY permeability (Caco-2 cell monolayers [1]): significant increase
- Papp at 2 h, 8 ng/mL ([2]; 2 h, loaded 8 ng/mL): 5.72 ± 0.91 ×10⁻⁶ cm/s
- Papp at 2 h, 16 ng/mL ([2]; 2 h, loaded 16 ng/mL): 9.6 ± 0.55 ×10⁻⁶ cm/s
- Papp at 2 h, 32 ng/mL ([2]; 2 h, loaded 32 ng/mL): 14.4 ± 5.27 ×10⁻⁶ cm/s
- Papp at 6 h, 8 ng/mL ([2]; 6 h, loaded 8 ng/mL): 15 ± 2.29 ×10⁻⁶ cm/s
- Papp at 6 h, 16 ng/mL ([2]; 6 h, loaded 16 ng/mL): 19 ± 349 ×10⁻⁶ cm/s
- Papp at 6 h, 32 ng/mL ([2]; 6 h, loaded 32 ng/mL): 24.5 ± 3.01 ×10⁻⁶ cm/s
- % theoretical amount of toxin crossing the Caco-2 cell monolayers (Caco-2 cell monolayers [3]; 2 h, 8 ng/mL): 8.50 ± 1.25%
- % theoretical amount of toxin crossing the Caco-2 cell monolayers (Caco-2 cell monolayers [3]; 2 h, 16 ng/mL): 13.33 ± 1.69%
- % theoretical amount of toxin crossing the Caco-2 cell monolayers (Caco-2 cell monolayers [3]; 2 h, 32 ng/mL): 20.73 ± 7.28%
- Percentage of toxin crossing the Caco-2 cell monolayers (Caco-2 cell monolayers [3]; 2 h, loaded 8 ng/mL): 9.23 ± 1.46%
- Percentage of toxin crossing the Caco-2 cell monolayers (Caco-2 cell monolayers [3]; 2 h, loaded 16 ng/mL): 15.48 ± 0.89%
- Percentage of toxin crossing the Caco-2 cell monolayers (Caco-2 cell monolayers [3]; 2 h, loaded 32 ng/mL): 23.25 ± 6.88%
- % theoretical amount of toxin crossing the Caco-2 cell monolayers (Caco-2 cell monolayers [3]; 6 h, 8 ng/mL): 22.33 ± 3.36%
- % theoretical amount of toxin crossing the Caco-2 cell monolayers (Caco-2 cell monolayers [3]; 6 h, 16 ng/mL): 26.08 ± 3.00%
- % theoretical amount of toxin crossing the Caco-2 cell monolayers (Caco-2 cell monolayers [3]; 6 h, 32 ng/mL): 34.60 ± 4.41%
- Percentage of toxin crossing the Caco-2 cell monolayers (Caco-2 cell monolayers [3]; 6 h, loaded 8 ng/mL): 24.23 ± 3.69%
- Percentage of toxin crossing the Caco-2 cell monolayers (Caco-2 cell monolayers [3]; 6 h, loaded 16 ng/mL): 30.63 ± 5.62%
- Percentage of toxin crossing the Caco-2 cell monolayers (Caco-2 cell monolayers [3]; 6 h, loaded 32 ng/mL): 39.45 ± 4.86%
- mechanism of transport from the apical to the basolateral compartment (Caco-2 cell monolayers [3]; inferred from concentration-dependent Papp): passive diffusion
- permeability / oral bioavailability class from Caco-2 Papp (Caco-2 cell monolayers [3]; threshold Papp > 1.5 × 10^−6 cm·s^−1 = highly penetrative): high oral bioavailability
- apoptosis induction (cancer cells): induces apoptosis
- acute intraperitoneal toxicity (mice): not very toxic
